Experimental data reported in patent US9820986B2, “Glycopeptide compositions” (TAIWAN HOPAZ CHEMS, MFG. CO., LTD., priority 2005, dated 2017).

Key:
bone = assay: Bone scintographic imaging studies; format: in vivo, normal female Fischer 344 rats; details: 99mTc-labeled, 300 μCi, i.v.
[1] = Renal clearance of pamidronate; details: in vivo
tumor = assay: Tumor response to paclitaxel treatment, imaged with 99mTc-glycopeptide; format: in vivo, rats; details: paclitaxel 40 mg/kg iv
Description: To assess anti-angiogenic treatment response, rats were treated with paclitaxel (40 mg/kg,iv), followed by imaging with ^99mTc-glycopeptide on day 4. Tumor uptake and in situ hybridization (ISH) and TUNEL assays were conducted pre- and post-paclitaxel treatment.

| renal clearance [1] | Structure (SMILES) | bone targeting (bone) | tumor progression (tumor; day 4, compared to 99mTc-glycopeptide baseline) | tumor necrosis (tumor; post-treatment) |
| --- | --- | --- | --- | --- |
| quick renal clearance | NCCC(O)(P(=O)(O)O)P(=O)(O)O [Pamidronate] | targets bone poorly | – | – |
| – | CC(=O)O[C@H]1C(=O)[C@@]2(C)[C@H]([C@H](OC(=O)c3ccccc3)[C@]3(O)C[C@H](OC(=O)[C@H](O)[C@@H](NC(=O)c4ccccc4)c4ccccc4)C(C)=C1C3(C)C)[C@]1(OC(C)=O)CO[C@@H]1C[C@@H]2O [paclitaxel] | – | no marked tumor progression | clearly seen |
